Legend:
[1] = target: T1, [3H]ifenprodil binding site, rat forebrain membranes (Rattus norvegicus, UniProt P35439+Q00960); assay: [3H]Ifenprodil binding assay; conditions: 4 nM [3H]-ifenprodil, 2 hours at room temperature
T1 construct: membrane fraction was prepared from frozen adult rat forebrains; tissue Zivic-Miller Laboratories, Inc; host or cells: adult rat forebrain, washed buffy coat membrane fraction
Procedure: All buffers and reagents used in assay incubations or to dissolve drugs were prepared using water purified through a Milli-Q reverse osmosis system (Millipore Corp, Bedford, Mass.) and treated with UV emissions. Prior to use in the assays, buffers were further filtered through a sterile Corning filtration unit (Corning Glass Works, Corning, N.Y.) containing a 0.2-micron filter. Buffer used to rinse the membranes on the assay filters was prepared with purified water, but was not refiltered and was stored no longer than 5 days. Stock solutions of the drugs (usually 10 mM) were dissolved in 20 mM HEPES-KOH buffer pH 7.4 (assay buffer) with the addition of 1 to 5 μL of glacial AcOH, if needed to keep them in solution. For eliprodil the stock solution was buffered with the addition of 10% DMSO. All subsequent dilutions from stock were made in buffer.
An extensively washed buffy coat membrane fraction was prepared from frozen adult rat forebrains (Zivic-Miller Laboratories, Inc., Zelienople, Pa.) as described previously (Coughenour L. L., Cordon, J. J., J. Pharmacol. Exp. Ther., 1997;280:584-592) and stored at −80° C. On the day of the assay, pellets were resuspended in 35 mL of assay buffer at pH 7.4 using a Polytron setting 6. After incubation at 37° C. for 30 minutes in a shaking water bath, the homogenate was centrifuged 40,000×g for 10 minutes at 4° C. The pellets were resuspended in fresh buffer and centrifuged 3 more times before final suspension for use in the assay.
[^3H]Ifenprodil Binding. Triplicate incubations were carried out in a volume of 0.5 mL in 1.3 mL polypropylene tubes (Marsh Biomedical Products Inc., Rochester, N.Y.) for 2 hours at room temperature. Incubations contained test agents, membranes (100-200 μg protein) and 4 nM[^3H]-ifenprodil in 20 mM HEPES-KOH buffer, pH 7.4 (assay buffer). Assays were started by addition of the membranes. Bound radioligand was separated by filtration under reduced pressure using a Tomtec Mach II, 96-well cell harvester (Tomtec Inc., Orange, Colo.). Filtration was through Whatman GF/B glass fiber filters (Whatman Ltd, Maidstone, England), which had been soaked for at least 15 minutes in 0.3% polyethylenimine and allowed to air dry. The filters were rinsed with 3 mL of ice cold assay buffer within 6 seconds. Air was allowed to pass through the filters for an additional 10 seconds to remove residual moisture. The filter mat was supported on a cold (−20° C.) teflon support, and filters from individual wells were separated and placed in Mini Poly-Q vials (Beckman Instruments Inc., Fullerton, Calif.) and filled with 4 mL of scintillation cocktail (Beckman Ready Protein^+). Radioactivity retained on the filter was determined by liquid scintillation spectrophotometry. Nonspecific binding was defined as the binding in the presence of 1 mM ifenprodil. Specific binding was 90%.
Data analysis. Binding curves were statistically analyzed for a best one or two site competition fit using GraphPad Prism software (GraphPad Software Inc., San Diego, Calif.). The normalized data was fit by nonweighted nonlinear regression to either [formula]
Control data was entered as 100%, and no parameters were constrained. Inhibition curves were compared by ANOVA with post test comparisons of the logIC50 using Dunnett's multiple comparisons post test or Student's nonpaired, two-tailed t-test (GraphPad InStat software).

NR1A/NR2B NMDA receptor = NR1A/NR2B NMDA receptor (Rattus norvegicus, UniProt P35439+Q00960); assay: Electrophysiological assay at NMDA receptor subunits expressed in Xenopus oocytes; type: cell-based; conditions: cloned rat NR1A/NR2B in Xenopus oocytes, two-electrode voltage clamp, glutamate 100 μM + glycine 1-100 μM; read-out: NR1A/NR2B Oocyte IC50
Text: Preparation of RNA. cDNA clones encoding the NR1A, NR2A, NR2B, and NR2C rat NMDA receptor subtypes were used (see, Moriyoshi, supra., 1991; Kutsuwada et al., supra., 1992; Monyer et al., supra, 1992; Ikeda et al., FEBS Lett., 1992;313:34-38; Ishii et al., J. Biol. Chem., 1993;268:2836-2843 for details of these clones or their mouse homologs). The clones were transformed into appropriate host bacteria and plasmid preparations were made with conventional DNA purification techniques. A sample of each clone linearized by restriction enzyme digestion […] was synthesized with T3 RNA polymerase. The cRNA was diluted to 400 ng/μL and stored in 1-μL aliquots at −80° C. until injection.
The Xenopus oocyte expression system. Mature female Xenopus laevis were anaesthetized (20-40 minutes) using 0.15% 3-aminobenzoic acid ethyl ester (MS-222), and 2 to 4 ovarian lobes were surgically removed. Oocytes at developmental stages IV-VI (Dumont J. N., J. Morphol., 1972;136:153-180) were dissected from the ovary still surrounded by enveloping ovarian tissues. Follicle-enclosed oocytes were microinjected with 1:1 mixtures of NR1A:NR2A, 2B or 2C; injecting 1 to 10 ng of RNA encoding each receptor subunit. NR1A encoding RNA was injected alone at ˜20 ng. Oocytes were stored in Barth's medium containing (in mM): NaCl, 88; KCl, 1; CaCl2, 0.41; Ca (NO3)2, 0.33; MgSO4, 0.82; NaHCO3, 2.4; HEPES 5; pH 7.4, with 0.11 mg/mL gentamicin sulphate. While oocytes were still surrounded by enveloping ovarian tissues, the Barth's medium was supplemented with 0.1% bovine serum. Oocytes were defolliculated 1 to 2 days following injections by treatment with collagenase (0.5 mg/mL Sigma Type I for 0.5-1 hr)-(Miledi and Woodward, J. Phsyiol., (Lond) 1989;416:601-621) and subsequently stored in serum-free medium.
Electrical recordings were made using a conventional two-electrode voltage clamp (Dagan TEV-200) over periods ranging between 3 to 21 days following injection (Woodward et al., Mol. Pharmacol., 1992;41:89-103). Oocytes were placed in a 0.1-mL recording chamber continuously perfused (5 mL-15 mL min^−1) with frog Ringer's solution containing (in mM): NaCl, 115; KCL, 2; BaCl2, 1.8; HEPES, 5; and pH 7.4. Drugs were applied by bath perfusion. Using oocytes expressing different subunit combinations of NMDA receptor, NMDA currents were activated by co-application of glutamate (100 μM) and glycine (1-100 μM). Inhibitory potency of the novel antagonists was assessed on responses elicited by fixed concentrations of glutamate and glycine, by measuring reductions in current induced by progressively increasing concentrations of antagonist.
Concentration-inhibition curves were fit with Equation 1.
I/Icontrol=1/(1+([antagonist]/10−^pIC50)^n) Eq. 1
In which Icontrol is the current evoked by agonists alone, pIC50=−log IC50, IC50 is the concentration of antagonist that produced half maximal inhibition, and n is the slope factor (De Lean et al., Am. J. Physiol., 1978;235:E97-102). For incomplete curves, analysis by fitting was unreliable and IC50 values were calculated by simple regression over linear portions of the curves (Origin: Microcal Software).

[2] = system: 6-Hydroxydopamine-lesioned rats; assay: 6-OHDA lesioned rat assay; type: in vivo; conditions: for 6-OHDA MED: minimum effective dose to potentiate contraversive rotation induced by L-DOPA methyl ester 10 mg/kg SC, 6-hour period; for 6-OHDA active/inactive at the given dose: statistically significant increase in contraversive rotations vs L-DOPA only
Procedure: 6-Hydroxydopamine-lesioned rats were used (see Ungerstedt U., Arbuthnott G. W., Quantitative recording of rotational behavior in rats after 6-hydroxy-dopamine lesions of the nigrostraiatal dopamine system. Brain Res., 1971;24(3):485-93). Adult male Sprague-Dawley rats were anesthetized with chloral hydrate and unilateral lesions of the nigrostriatal dopamine system were accomplished by infusion of 8 μg of 6-hydroxydopamine HBr (6-OHDA) into the right medial forebrain bundle. Rats were pretreated 30 minutes before surgery with desipramine HCl 25 mg/kg intraperitoneally (IP) to protect noradrenegic neurons, and pargyline 25 mg/kg IP to potentiate the effects of 6-OHDA. A minimum of 3 weeks after surgery, the rotational behavior induced by apomorphine HCL 50 μg/kg subcutaneously (SC) was assessed.
Rotational behavior was measured using an automatic rotometer system (Rotorat Rotational Activity System, MED Associates, Georgia, Vt.). Anti-parkinsonian activity was assessed as the ability of the compound to potentiate the contraversive rotation induced by L-DOPA methyl ester, 10 mg/kg SC, over a 6-hour period. Experiments were conducted using a crossover paradigm where each rat received either a vehicle plus L-DOPA, or the test compound plus L-DOPA, in randomized order. Rats were tested at 7-day intervals. In experiments in which the compound was tested orally, rats were food deprived for 16 hours. Statistical analysis between treatment groups were performed using a paired t-test. The results were reported in Table 1 as the minimum effective dose (MED) of compound (mg/kg) required to produce a statistically-significant increase in total contraversive rotations compared to rats receiving L-DOPA only.

Chain of NR1A/NR2B NMDA receptor (Q00960 27-1482, other chains not shown): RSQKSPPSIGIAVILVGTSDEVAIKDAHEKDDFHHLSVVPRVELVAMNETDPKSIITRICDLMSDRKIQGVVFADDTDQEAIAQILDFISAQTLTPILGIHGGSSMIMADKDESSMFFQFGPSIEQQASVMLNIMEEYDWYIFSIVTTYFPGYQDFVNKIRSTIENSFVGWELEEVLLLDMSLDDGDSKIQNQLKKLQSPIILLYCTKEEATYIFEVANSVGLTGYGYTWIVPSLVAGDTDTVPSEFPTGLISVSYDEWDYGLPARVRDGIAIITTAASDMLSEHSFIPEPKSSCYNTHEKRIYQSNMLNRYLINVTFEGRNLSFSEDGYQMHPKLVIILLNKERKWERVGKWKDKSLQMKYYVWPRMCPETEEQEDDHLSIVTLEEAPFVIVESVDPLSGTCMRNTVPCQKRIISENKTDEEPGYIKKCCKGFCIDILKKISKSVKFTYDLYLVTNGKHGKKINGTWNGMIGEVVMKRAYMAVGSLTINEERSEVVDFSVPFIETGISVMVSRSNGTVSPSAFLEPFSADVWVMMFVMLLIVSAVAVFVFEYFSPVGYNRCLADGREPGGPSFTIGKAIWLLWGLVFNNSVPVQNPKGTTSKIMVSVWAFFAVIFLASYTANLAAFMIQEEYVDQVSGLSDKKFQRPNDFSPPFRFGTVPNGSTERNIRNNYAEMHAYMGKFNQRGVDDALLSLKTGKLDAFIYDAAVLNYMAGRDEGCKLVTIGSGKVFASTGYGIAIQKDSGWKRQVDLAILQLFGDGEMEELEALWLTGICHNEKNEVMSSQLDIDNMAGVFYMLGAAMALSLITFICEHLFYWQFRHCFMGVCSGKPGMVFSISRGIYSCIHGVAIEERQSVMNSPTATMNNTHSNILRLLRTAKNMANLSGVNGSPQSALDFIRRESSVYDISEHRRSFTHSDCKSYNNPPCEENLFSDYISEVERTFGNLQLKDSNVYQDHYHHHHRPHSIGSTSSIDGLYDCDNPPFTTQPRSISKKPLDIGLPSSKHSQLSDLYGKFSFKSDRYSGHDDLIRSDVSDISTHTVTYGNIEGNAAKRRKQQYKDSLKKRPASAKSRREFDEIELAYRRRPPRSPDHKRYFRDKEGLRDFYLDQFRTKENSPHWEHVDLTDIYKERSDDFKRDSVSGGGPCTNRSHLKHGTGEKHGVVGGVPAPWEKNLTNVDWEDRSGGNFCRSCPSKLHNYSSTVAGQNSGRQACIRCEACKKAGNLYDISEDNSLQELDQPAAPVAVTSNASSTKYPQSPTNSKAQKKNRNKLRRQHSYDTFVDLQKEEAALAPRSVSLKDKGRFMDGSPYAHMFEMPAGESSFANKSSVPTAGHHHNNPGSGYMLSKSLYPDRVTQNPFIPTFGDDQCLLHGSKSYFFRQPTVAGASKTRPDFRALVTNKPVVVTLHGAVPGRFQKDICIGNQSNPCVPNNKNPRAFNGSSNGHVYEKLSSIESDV
T1 sequence (Q00960 27-1482, other chains not shown): as above

C[C@H](N[C@H]1CC[C@H](c2ccc3[nH]c(=O)oc3c2)CC1)[C@H](O)c1ccccc1 (stereo in doubt) [Example 12, 6-{trans-4-[(1S,2R)-2-Hydroxy-1-methyl-2-phenylethylamino]cyclohexyl}-3H-benzoxazol-2-one]
IC50 [1]: 22500 nM
IC50 (NR1A/NR2B NMDA receptor): 70000 nM

O=c1[nH]c2ccc([C@H]3CC[C@H](NCCSc4ccccc4)CC3)cc2o1 [Example 5a, 6-[trans-4-(2-Phenylsulfanylethylamino)cyclohexyl]-3H-benzoxazol-2-one]
IC50 [1]: 4 nM
IC50 (NR1A/NR2B NMDA receptor): 20 nM

O=c1[nH]c2ccc(C3=CCC(NCCCc4ccccc4)CC3)cc2o1 (stereo not shown) [Example 6, 6-[4-(3-Phenylpropylamino)cyclohex-1-enyl]-3H-benzoxazol-2-one]
melting point: 293 to 295 °C
IC50 [1]: 9 nM

O=c1[nH]c2ccc([C@H]3CC[C@H](NCCSc4ccc(F)cc4)CC3)cc2o1 [Example 8, 6-{trans-4-[2-(4-Fluorophenylsulfanyl)ethylamino]cyclohexyl}-3H-benzoxazol-2-one]
IC50 (NR1A/NR2B NMDA receptor): 20 nM

C[C@H](CCc1ccccc1)N[C@H]1CC[C@H](c2ccc3[nH]c(=O)oc3c2)CC1 [Example 9, 6-{trans-4-[(R)-1-Methyl-3-phenylpropylamino]cyclohexyl}-3H-benzoxazol-2-one]
IC50 [1]: 15 nM
IC50 (NR1A/NR2B NMDA receptor): 60 nM

COc1ccc([C@H](O)[C@H](C)N[C@H]2CC[C@H](c3ccc4[nH]c(=O)oc4c3)CC2)cc1 [Example 11a, 6-{trans-4-[(1S,2S)-2-Hydroxy-2-(4-methoxyphenyl)-1-methylethylamino]-cyclohexyl}-3H-benzoxazol-2-one]
IC50 [1]: > 1000 nM
IC50 (NR1A/NR2B NMDA receptor): 55000 nM

CN(CCCc1ccccc1)[C@H]1CC[C@H](c2ccc3[nH]c(=O)oc3c2)CC1 [Example 17, 6-{trans-4-[Methyl(3-phenylpropyl)amino]cyclohexyl}-3H-benzoxazol-2-one]
melting point: 58 to 62 °C
IC50 [1]: 10 nM
6-OHDA MED [2]: 10 mg/kg
6-OHDA active/inactive at the given dose [2]: active

CN(CCSc1ccc(F)cc1)[C@H]1CC[C@H](c2ccc3[nH]c(=O)oc3c2)CC1 [Example 20, 6-{trans-4-[2-(4-Fluorophenylsulfanylethyl)methylamino]cyclohexyl}-3H-benzoxazol-2-one]
IC50 [1]: 25 nM
6-OHDA MED [2]: 30 mg/kg
6-OHDA active/inactive at the given dose [2]: active

Cc1ccc(CCCN(C)[C@H]2CC[C@H](c3ccc4[nH]c(=O)oc4c3)CC2)cc1 [Example 21, 6-{trans-4-[Methyl-3-(p-Tolylpropyl)amino]cyclohexyl}-3H-benzoxazol-2-one]
IC50 [1]: 16 nM
6-OHDA MED [2]: 10 mg/kg
6-OHDA active/inactive at the given dose [2]: active

CN(CCOc1ccccc1)[C@H]1CC[C@H](c2ccc3[nH]c(=O)oc3c2)CC1 [Example 22, 6-{trans-4-[Methyl(2-phenoxyethyl)amino]cyclohexyl}-3H-benzoxazol-2-one]
IC50 [1]: 53 nM
6-OHDA MED [2]: 10 mg/kg
6-OHDA active/inactive at the given dose [2]: active

CN(CCCc1ccc(C(F)(F)F)cc1)[C@H]1CC[C@H](c2ccc3[nH]c(=O)oc3c2)CC1 [Example 23, 6-{trans-4-[Methyl-3-(4-Trifluoromethylphenyl)propylamino]cyclohexyl}-3H-benzoxazol-2-one]
IC50 [1]: 38 nM
6-OHDA MED [2]: 10 mg/kg
6-OHDA active/inactive at the given dose [2]: active

CCN(CCCc1ccc(F)cc1)[C@H]1CC[C@H](c2ccc3[nH]c(=O)oc3c2)CC1 [Example 25, 6-(trans-4-{Ethyl-[3-(4-fluorophenyl)propyl]amino}cyclohexyl)-3H-benzoxazol-2-one]
IC50 [1]: 79 nM
6-OHDA MED [2]: 10 mg/kg
6-OHDA active/inactive at the given dose [2]: active

CC(CCN(C)[C@H]1CC[C@H](c2ccc3[nH]c(=O)oc3c2)CC1)c1ccccc1 (stereo partly drawn) [Example 37b, 6-[trans-4-(Methyl-3-phenylbutylamino)cyclohexyl]-3H-benzoxazol-2-one]
melting point: 61 to 70 °C
IC50 [1]: 32 nM

CN(C)c1ccc(CCCN(C)[C@H]2CC[C@H](c3ccc4[nH]c(=O)oc4c3)CC2)cc1 [Example 58, 6-(4-{[3(trans-4-Dimethylaminophenyl)propyl]methylamino}cyclohexyl)-3H-benzoxazol2-one]
melting point: 182 to 184 °C
IC50 [1]: 357 nM

— patent publication US6794402B2, “Bicyclic cyclohexylamines and their use as NMDA receptor antagonists” (Warner-Lambert Company, priority 2000, dated 2004)
